Literature values in US8680084B2, “Oral contraceptives to prevent pregnancy and diminish premenstrual symptomatology” (Teva Women's Health, Inc., priority 2001, dated 2014).

Key:
[1] = for amount roughly equivalent to 30 μg of ethinyl estradiol: estrogen potency relative to ethinyl estradiol; for amount roughly equivalent to 1 mg of levonorgestrel: progestin potency relative to levonorgestrel
PMDD = details: daily dose of either 20 mg or 60 mg; randomized, placebo-controlled trials

Structure (SMILES) | amount roughly equivalent to 1 mg of levonorgestrel [1] | other results
C#C[C@]1(O)CC[C@H]2[C@@H]3CCc4cc(OC)ccc4[C@H]3CC[C@@]21C [mestranol] | – | amount roughly equivalent to 30 μg of ethinyl estradiol [1]: ~60 µg
C#C[C@]1(O)CC[C@H]2[C@@H]3CCC4=CC(=O)CC[C@@H]4[C@H]3C(=C)C[C@@]21CC [3-ketodesogestrel] | ~1 mg | –
C#C[C@]1(OC(C)=O)CC[C@H]2[C@@H]3CCC4=CC(=O)CC[C@@H]4[C@H]3CC[C@@]21C [norethindrone acetate] | about 3.5 mg | –
CNCCC(Oc1ccc(C(F)(F)F)cc1)c1ccccc1 (stereo not shown) [Fluoxetine, fluoxetine] | – | reducing symptoms of PMDD versus placebo (PMDD): superior to placebo
C#C[C@]1(O)CC[C@H]2[C@@H]3CCC4=CCCC[C@@H]4[C@H]3C(=C)C[C@@]21CC [desogestrel] | ~1 mg | –
C#C[C@]1(O)C=C[C@H]2[C@@H]3CCC4=CC(=O)CC[C@@H]4[C@H]3CC[C@@]21CC [gestodene] | about 0.7 mg | –
C[C@]12CC[C@@H]3c4ccc(O)cc4CC[C@H]3[C@@H]1CC[C@@H]2O [17β-estradiol] | – | amount roughly equivalent to 30 μg of ethinyl estradiol [1]: ~2000 µg
